Test results from patent US20240317710A1, “CRYSTALLINE CSF-1R INHIBITOR ACIDIC SALT, PREPARATION METHOD THEREFOR AND USE THEREOF” (Abbisko Therapeutics Co. Ltd., priority 2021, published 2024).
Where a name gives a salt, the structure may show the parent alone.

Assays:
[1] = Solubility determination in deionized water; format: physicochemical; conditions: for Solubility S: ultrasonication, stepwise addition of water; for Dissolution result: visual observation
Procedure: About 2 mg of each of the various crystalline acidic salts and the compound of formula (I) in free form was precisely weighed out into a 2 mL glass vial, and about 100 μL of deionized water was added each time; the mixture was ultrasonicated, and if the compound was not dissolved, the step of adding deionized water and performing ultrasonication was repeated until the compound was completely dissolved or the concentration was <0.2 mg/mL. The total volume of the water added was recorded, the dissolution behavior and result were observed, and the solubility of each compound was calculated.

[2] = Hygroscopic behavior test by dynamic vapor sorption (DVS); format: physicochemical; conditions: for Hygroscopic weight gain %: 25° C., DVS
Description: The experimental method of characterizing the crystalline acidic salts of the compound of formula (I) using dynamic vapor sorption (DVS) is as follows: a small amount of crystalline acidic salt powder of the compound of formula (I) was placed in a precision sample pan that came with the instrument; after the sample was loaded, the aluminum pan was sent into the instrument for analysis. In the present patent, the instruments used for dynamic vapor sorption were all the DVS Intrinsic model, the experimental parameter was set to using nitrogen as a carrier gas, the constant temperature was set to 25° C., the rate of mass percentage change over a unit of time (dm/dt)=0.01%/min was used as a criterion for determining if an equilibrium is reached, and the program humidity change cycle was set as follows: the initial relative humidity was 0%, the relative humidity was 90% at the end of the cycle, 2 cycles were set, and each 10% R.H. change was a step.
The inventors of the present invention measured the hygroscopic weight gains of each of the various crystalline forms in various relative humidity conditions (hygroscopic weight gain/pre-hygroscopic weight[…]) according to the dynamic vapor sorption method, and assessed the hygroscopicity of the different crystalline compounds.

Solubility S [1]	Dissolution result [1]	hygroscopic weight gain [2]	Hygroscopic weight gain % ([2]; relative humidity 0.0 %) [%]	Hygroscopic weight gain % ([2]; relative humidity 10.0 %) [%]	Hygroscopic weight gain % ([2]; relative humidity 20.0 %) [%]	Hygroscopic weight gain % ([2]; relative humidity 30.0 %) [%]	Hygroscopic weight gain % ([2]; relative humidity 40.0 %) [%]	Hygroscopic weight gain % ([2]; relative humidity 50.0 %) [%]	Hygroscopic weight gain % ([2]; relative humidity 60.0 %) [%]	Hygroscopic weight gain % ([2]; relative humidity 70.0 %) [%]	Hygroscopic weight gain % ([2]; relative humidity 80.0 %) [%]	Hygroscopic weight gain % ([2]; relative humidity 90.0 %) [%]	Structure (SMILES)
S > 20 mg/mL	Clear solution												Cc1nc(NC(=O)N2CCC(C)(C)C2=O)ccc1Oc1ccnc(-c2cnn(C)c2)c1 [Citrate crystalline form I, 3,3-dimethyl-N-(6-methyl-5-((2-(1-methyl-1H-pyrazol-4-yl)pyridin-4-yl)oxy)pyridin-2-yl)-2-oxopyrrolidine-1-carboxamide]
S < 1.5 mg/mL	Not clear												Cc1nc(NC(=O)N2CCC(C)(C)C2=O)ccc1Oc1ccnc(-c2cnn(C)c2)c1 [Compound in free form, 3,3-dimethyl-N-(6-methyl-5-((2-(1-methyl-1H-pyrazol-4-yl)pyridin-4-yl)oxy)pyridin-2-yl)-2-oxopyrrolidine-1-carboxamide]
S > 20 mg/mL	Clear solution												Cc1nc(NC(=O)N2CCC(C)(C)C2=O)ccc1Oc1ccnc(-c2cnn(C)c2)c1 [Fumarate crystalline form I, 3,3-dimethyl-N-(6-methyl-5-((2-(1-methyl-1H-pyrazol-4-yl)pyridin-4-yl)oxy)pyridin-2-yl)-2-oxopyrrolidine-1-carboxamide]
S > 20 mg/mL	Clear solution	less than 10%	0.00	0.13	0.24	0.34	0.42	0.52	0.63	0.81	1.37	19.40	Cc1nc(NC(=O)N2CCC(C)(C)C2=O)ccc1Oc1ccnc(-c2cnn(C)c2)c1 [Hydrochloride crystalline form I, 3,3-dimethyl-N-(6-methyl-5-((2-(1-methyl-1H-pyrazol-4-yl)pyridin-4-yl)oxy)pyridin-2-yl)-2-oxopyrrolidine-1-carboxamide]
S > 20 mg/mL	Clear solution												Cc1nc(NC(=O)N2CCC(C)(C)C2=O)ccc1Oc1ccnc(-c2cnn(C)c2)c1 [Malate crystalline form I, 3,3-dimethyl-N-(6-methyl-5-((2-(1-methyl-1H-pyrazol-4-yl)pyridin-4-yl)oxy)pyridin-2-yl)-2-oxopyrrolidine-1-carboxamide]
S > 20 mg/mL	Clear solution		0.00	0.11	0.18	0.20	0.24	0.31	0.88	8.93	12.44	23.15	Cc1nc(NC(=O)N2CCC(C)(C)C2=O)ccc1Oc1ccnc(-c2cnn(C)c2)c1 [Methanesulfonate crystalline form II, 3,3-dimethyl-N-(6-methyl-5-((2-(1-methyl-1H-pyrazol-4-yl)pyridin-4-yl)oxy)pyridin-2-yl)-2-oxopyrrolidine-1-carboxamide]
S > 20 mg/mL	Clear solution		0.02	1.19	1.86	2.32	2.78	3.37	3.97	4.66	5.46	6.383	Cc1nc(NC(=O)N2CCC(C)(C)C2=O)ccc1Oc1ccnc(-c2cnn(C)c2)c1 [Phosphate crystalline form I, 3,3-dimethyl-N-(6-methyl-5-((2-(1-methyl-1H-pyrazol-4-yl)pyridin-4-yl)oxy)pyridin-2-yl)-2-oxopyrrolidine-1-carboxamide]
S > 20 mg/mL	Clear solution												Cc1nc(NC(=O)N2CCC(C)(C)C2=O)ccc1Oc1ccnc(-c2cnn(C)c2)c1 [Sulfate crystalline form I, 3,3-dimethyl-N-(6-methyl-5-((2-(1-methyl-1H-pyrazol-4-yl)pyridin-4-yl)oxy)pyridin-2-yl)-2-oxopyrrolidine-1-carboxamide]
S > 20 mg/mL	Clear solution		0.00	0.83	1.79	2.42	2.88	3.32	3.77	4.44	5.17	10.61	Cc1nc(NC(=O)N2CCC(C)(C)C2=O)ccc1Oc1ccnc(-c2cnn(C)c2)c1 [Tartrate crystalline form I, 3,3-dimethyl-N-(6-methyl-5-((2-(1-methyl-1H-pyrazol-4-yl)pyridin-4-yl)oxy)pyridin-2-yl)-2-oxopyrrolidine-1-carboxamide]
